# Measurements from PMC9318133 (International Journal of Molecular Sciences, 2022).
# Test system: fEPSP of CA1 area of mouse hippocampal slice
# Assay: Electrophysiological recording of fEPSP in hippocampal slices
# Assay type: cell-based
# Settings: AM-251 2 µM; JWH-175 and JWH-018 both at 1 µM; data not shown
# Protocol: Procedures for tissue preparation are the same as those described by Ossato et al., 2016 [45]. In brief, after mouse decapitation, the head was immediately chilled in refrigerated artificial cerebrospinal fluid (aCSF, 0 °C) of the following composition (in mM): NaCl, 126; KCl, 2; KH2PO4, 1.25; NaHCO3, 26; MgSO4, 2.0; CaCl2, 2.5; d-glucose, 10. After 1 min, the brain was extracted to isolate the hippocampus and then placed in ice-cold artificial cerebrospinal fluid (aCSF). All solutions were saturated with 95% O2/5% CO2. Transverse hippocampal slices (425 μm thick) were cut with a tissue chopper and then placed for almost 90 min in a Haas-style incubation chamber for recovery before recording.
# A single slice was transferred into a submerged-type recording chamber (3 mL total volume) and continuously superfused (3.0 mL/min) with warmed (32–33 °C) aCSF. WINLTP 2.10 computer software was used for stimulus triggering, PC recording, and analysis. Synaptic responses of CA1 pyramidal neurons were elicited by electrical stimulation of the Schaffer collateral/commissural pathway. Single stimulation pulses (80 µs duration; 0.05 Hz) were delivered by mean of a concentric bipolar electrode (o.d. 125 μm, FHC, USA) connected to a Grass S11 stimulator driving a PSIU6 constant current stimulus isolation unit. To record the fEPSPs, borosilicate glass electrodes fabricated using a microelectrode puller (P97, Sutter Instruments) and filled with aCSF (1.5 ± 0.5 MΩ), inserted in the distal third of the stratum radiatum and 200–300 µm away from stimulating electrodes, were used. The maximal fEPSPs response was reached by adjusting the recording electrode depth. Recorded potentials were amplified (Axoprobe 1A DC-coupled—Cyberamp 320, Molecular Devices, Sunnyvale, CA, USA) and filtered (5.0 kHz) prior to A/D conversion. Upon 10 min of stable synaptic response, a stimulus–response curve (SRC) was generated as previously described to extrapolate a stimulation intensity evoking 70% of maximal fEPSP, to be used throughout the experiment. […] To investigate whether the vehicle had any effect on synaptic activity, the superfusion inlet was switched to a reservoir containing aCSF plus the amount of vehicle present for the corresponding drug concentration (sham application), before switching to the solution also including the drug, for comparison. All reservoirs and tubing were on glass or Teflon to avoid the capturing of cannabinoids by plastic or silicon parts.
# We analyzed data from in vitro recordings as previously described. […] Effect of treatment was considered steady state when stable +/− 5% for 10 min.
compound,measurement,value
"Cc1c(C(=O)NN2CCCCC2)nn(-c2ccc(Cl)cc2Cl)c1-c1ccc(I)cc1 [AM-251, 1-(2,4-dichlorophenyl)-5-(4-iodophenyl)-4-methyl-N-1-piperidinyl-1H-pyrazole-3-carboxamide]",effect of AM-251 perfusion on the inhibitory effect of JWH-175 and JWH-018 on fEPSP,completely prevented
